Source: patent publication EP3495350B1, “COMPOUND INHIBITING FORMATION OF C-MYC/MAX/DNA COMPLEX” (National Cancer Center, priority 2016, dated 2018)

Assays:
zebrafish = experiment: Cardiotoxicity experiment using zebrafish (heart rate, lethality); format: in vivo; settings: n=10; for Changes in heart rate (%): mean
MBT-2 = experiment: Cell based assay, cell viability (CellTiter-Glo), MBT-2; settings: 72 hours, 0 to 2 µM; read-out: cell based assay cell line 1 MBT-2 IC50
Description: (§1) Commercially available bladder cancer cell lines were treated with trypsin-EDTA and seeded in each well of a 96 well plate, followed by incubation for 24 hours. After incubation, candidate compounds were added to each well at a final concentration of 0 to 2 µM. The compound-treated cells were further incubated for 72 hours. Cell viability was measured using an ATP detection method (CellTiter-Glo Luminescent Cell Viability Assay, Promega).
(§2) The selectivity of the compounds of the present disclosure to cancer cells was evaluated in the same manner as described in "2. Cell based assay".

[1] = Cell based assay, cell viability (CellTiter-Glo), RT4 (selectivity); settings: human, rt4 cells; selectivity evaluation, Table 6; benign; read-out: Cytotoxicity (µM) RT4
Description: as §1, with “After incubation, candidate compounds were added to each well at a final concentration of 0 to 2 µM.” left out
as §2

UM-UC-3 = experiment: Cell based assay, cell viability (CellTiter-Glo), UM-UC-3; settings: Homo sapiens, UMUC3; 72 hours, 0 to 2 µM; read-out: cell based assay cell line 4 UM-UC-3 IC50
Description: as §1, §2

253J = experiment: Cell based assay, cell viability (CellTiter-Glo), 253J; settings: Homo sapiens; 72 hours, 0 to 2 µM; read-out: cell based assay cell line 3 253J IC50
Description: as §1, §2

KU19-19 = experiment: Cell based assay, cell viability (CellTiter-Glo), KU19-19; settings: Homo sapiens, KU-19-19; 72 hours, 0 to 2 µM; read-out: cell based assay cell line 2 KU19-19 IC50
Description: as §1, §2

recombinant c-Myc/Max = experiment: Protein assay: electrophoretic mobility shift assay (EMSA) of DNA binding of c-Myc/Max; format: biochemical
Description: Recombinant proteins were prepared as described in the following references: K. C. Jung et al., Fatty Acids, Inhibitors for the DNA Binding of c-Myc/Max Dimer, Suppress Proliferation and Induce Apoptosis of Differentiated HL-60 Human Leukemia Cell, Leukemia, 2006, 20(1), 122-7 or Kyung-Chae Jeong et al., Small-Molecule Inhibitors of c-Myc Transcriptional Factor Suppress Proliferation and Induce Apoptosis of Promyelocytic Leukemia Cell via Cell Cycle Arrest, Mol. BioSyst., 2010, 6, 1503-1509.
The inhibitory activity of each candidate compound on DNA binding of recombinant c-Myc/Max was measured using an electrophoretic mobility shift assay (EMSA). The ratio of protein-DNA complexes in each sample was evaluated by measuring band intensity. The oligonucleotides (E-box, 5'-biotin-[…]-3'-biotin) corresponding to the consensus binding site of Myc/Max were dimerized through an annealing process. The protein mixture was incubated at room temperature for 5 minutes, and a DMSO solution containing each candidate compound was added thereto. The mixture was further incubated for 5 minutes, and the biotinylated DNA was added. To achieve a state of equilibrium, the final mixture was incubated at room temperature for 10 minutes. […] Each band was visualized using HRP-conjugated streptavidin and an ECL solution, and band intensity was measured using image analysis software.

IC50 (recombinant c-Myc/Max)	Compound	Changes in heart rate (%) (zebrafish; 10 µM)	Lethality (zebrafish; 10 µM)	IC50 (MBT-2)	CC50 at 72 h [1]	IC50 (UM-UC-3)	IC50 (253J)	IC50 (KU19-19)	Changes in heart rate (%) (zebrafish; 5 µM)	Lethality (zebrafish; 5 µM)	Note (heart rate inhibition) (zebrafish; 5 µM)
–	COc1ccc(CCN2CCC(Nc3nc4ccccc4n3Cc3ccc(F)cc3)CC2)cc1 [Astemizole, reference compound]	46.2%	0/10	–	–	–	–	–	–	–	–
–	CC(=O)c1c([S+]([O-])Cc2ccc([N+](=O)[O-])cc2)[nH]c2c(Br)ccc(Cl)c2c1=O (centres unmarked) [Compound 33, 3-acetyl-8-bromo-5-chloro-2-((4-nitrobenzyl)sulfinyl)quinolin-4(1H)-one]	–	–	900 nM	> 10 µM	1110 nM	1390 nM	1420 nM	97.3%	0/10	No significant heart rate inhibition
–	CC(=O)c1c([S+]([O-])Cc2cccc(F)c2)[nH]c2c(Br)ccc(Cl)c2c1=O (centres unmarked) [Compound 50, 3-acetyl-8-bromo-5-chloro-2-((3-fluorobenzyl)sulfinyl)quinolin-4(1H)-one]	–	–	1580 nM	–	1260 nM	1430 nM	1690 nM	–	–	–
–	CC(=O)c1c([S+]([O-])c2ccccc2)[nH]c2c(Br)ccc(Cl)c2c1=O (centres unmarked) [Compound 13, 3-acetyl-8-bromo-5-chloro-2-(phenylsulfinyl)quinolin-4(1H)-one]	–	–	> 2000 nM	–	> 2000 nM	> 2000 nM	> 2000 nM	–	–	–
–	COC(=O)c1ccc(C[S+]([O-])c2[nH]c3c(Cl)ccc(Cl)c3c(=O)c2C(C)=O)cc1 (centres unmarked) [Compound 91, methyl 4-(((3-acetyl-5,8-dichloro-4-oxo-1,4-dihydroquinolin-2-yl)sulfinyl)methyl)benzoate]	–	–	1370 nM	–	1560 nM	> 2000 nM	> 2000 nM	–	–	–
–	CC(=O)c1c([S+]([O-])Cc2ccc(C#N)s2)[nH]c2c(Br)ccc(Cl)c2c1=O (centres unmarked) [Compound 98, 5-(((3-acetyl-8-bromo-5-chloro-4-oxo-1,4-dihydroquinolin-2-yl)sulfinyl)methyl)thiophene-2-carbonitrile]	–	–	840 nM	–	1520 nM	1380 nM	1900 nM	–	–	–
–	CC(=O)c1c([S+]([O-])Cc2cc(F)cc(F)c2)[nH]c2c(Br)ccc(Cl)c2c1=O (centres unmarked) [Compound 46, 3-acetyl-8-bromo-5-chloro-2-((3,5-difluorobenzyl)sulfinyl)quinolin-4(1H)-one]	–	–	1840 nM	–	1220 nM	1960 nM	1800 nM	–	–	–
–	CC(=O)c1c([S+]([O-])Cc2ccc(NS(C)(=O)=O)cc2)[nH]c2c(Br)ccc(Cl)c2c1=O (centres unmarked) [Compound 103, N-(4-(((3-acetyl-8-bromo-5-chloro-4-oxo-1,4-dihydroquinolin-2-yl)sulfinyl)methyl)phenyl)methanesulfonamide]	–	–	> 2000 nM	–	> 2000 nM	> 2000 nM	> 2000 nM	–	–	–
–	Cc1cc(C[S+]([O-])c2[nH]c3c(Cl)ccc(Cl)c3c(=O)c2C(=O)C(C)C)no1 (centres unmarked) [Compound 86, 5,8-dichloro-3-isobutyryl-2-(((5 - methylisoxazol-3-yl)methyl)sulfinyl)quinolin-4(1H)-one]	–	–	810 nM	–	1260 nM	1060 nM	1410 nM	–	–	–
< 1000 nM	CC(=O)c1c(S(=O)(=O)Cc2ccccc2)nc2c(Br)ccc(Cl)c2c1O [Compound 54, 1-(2-(benzylsulfonyl)-8-bromo-5-chloro-4-hydroxyquinolin-3-yl)ethan-1-one]	–	–	> 2000 nM	–	> 2000 nM	> 2000 nM	> 2000 nM	–	–	–
–	CC(=O)c1c([S+]([O-])Cc2cccc(C#N)c2)[nH]c2c(Br)ccc(Cl)c2c1=O (centres unmarked) [Compound 28, 3-(((3-acetyl-8-bromo-5-chloro-4-oxo-1,4-dihydroquinolin-2-yl)sulfinyl)methyl)benzonitrile]	–	–	790 nM	–	790 nM	740 nM	1460 nM	–	–	–
–	CC(=O)c1c([S+]([O-])Cc2cccc(I)c2)[nH]c2c(Br)ccc(Cl)c2c1=O (centres unmarked) [Compound 48, 3-acetyl-8-bromo-5-chloro-2-((3-iodobenzyl)sulfinyl)quinolin-4(1H)-one]	–	–	> 2000 nM	–	1820 nM	> 2000 nM	> 2000 nM	–	–	–
–	CC(=O)c1c([S+]([O-])Cc2c(F)cccc2Cl)[nH]c2c(Br)ccc(Cl)c2c1=O (centres unmarked) [Compound 74, 3-acetyl-8-bromo-5-chloro-2-((2-chloro-6-fluorobenzyl)sulfinyl)quinolin-4(1H)-one]	–	–	1150 nM	–	1540 nM	810 nM	1640 nM	–	–	–
–	CC(=O)c1c([S+]([O-])Cc2ccc(F)c(Cl)c2)[nH]c2c(Br)ccc(Cl)c2c1=O (centres unmarked) [Compound 31, 3-acetyl-8-bromo-5-chloro-2-((3-chloro-4-fluorobenzyl)sulfinyl)quinolin-4(1H)-one]	–	–	1280 nM	–	1020 nM	890 nM	1450 nM	–	–	–
–	CC(=O)c1c([S+]([O-])Cc2ccc(C(=O)c3ccccc3)cc2)[nH]c2c(Br)ccc(Cl)c2c1=O (centres unmarked) [Compound 63, 3-acetyl-2-((4-benzoylbenzyl)sulfinyl)-8-bromo-5-chloroquinolin-4(1H)-one]	–	–	> 2000 nM	–	> 2000 nM	> 2000 nM	> 2000 nM	–	–	–
–	CC(=O)c1c([S+]([O-])Cc2ccc(C(F)(F)F)cc2)[nH]c2c(Br)ccc(Cl)c2c1=O (centres unmarked) [Compound 70, 3-acetyl-8-bromo-5-chloro-2-((4-(trifluoromethyl)benzyl)sulfinyl)quinolin-4(1H)-one]	–	–	1330 nM	–	1260 nM	1040 nM	1750 nM	–	–	–
–	CC(=O)c1c([S+]([O-])Cc2ccccc2C#N)[nH]c2c(Br)ccc(Cl)c2c1=O (centres unmarked) [Compound 58, 2-(((3-acetyl-8-bromo-5-chloro-4-oxo-1,4-dihydroquinolin-2-yl)sulfinyl)methyl)benzonitrile]	–	–	860 nM	–	1220 nM	920 nM	920 nM	–	–	–
–	CC(=O)c1c([S+]([O-])Cc2ccc(-n3cccn3)nc2)[nH]c2c(Br)ccc(Cl)c2c1=O (centres unmarked) [Compound 99, 2-(((6-(1H-pyrazol-1-yl)pyridin-3-yl)methyl)sulfinyl)-3-acetyl-8-bromo-5-chloroquinolin-4(1H)-one]	–	–	470 nM	–	770 nM	800 nM	1120 nM	–	–	–
–	CC(=O)c1c([S+]([O-])Cc2cc(F)cc(S(F)(F)(F)(F)F)c2)[nH]c2c(Br)ccc(Cl)c2c1=O (centres unmarked) [Compound 76, 3-acetyl-8-bromo-5-chloro-2-((3-fluoro-5 - (pentafluoro-λ6-sulfanyl)benzyl)sulfinyl)quinolin-4(1H)-one]	–	–	1860 nM	–	1390 nM	1240 nM	1860 nM	–	–	–
–	COc1cccc2[nH]c([S+]([O-])Cc3ccc(S(F)(F)(F)(F)F)cc3)c(C(C)=O)c(=O)c12 (centres unmarked) [Compound 93, 3-acetyl-5-methoxy-2-((4-(pentafluoro-λ6-sulfanyl)benzyl)sulfinyl)quinolin-4(1H)-one]	–	–	> 2000 nM	–	> 2000 nM	> 2000 nM	> 2000 nM	–	–	–
–	COc1cc(S(F)(F)(F)(F)F)ccc1C[S+]([O-])c1[nH]c2c(Br)ccc(Cl)c2c(=O)c1C(C)=O (centres unmarked) [Compound 75, 3-acetyl-8-bromo-5-chloro-2-((2-methoxy-4-(pentafluoro-λ6-sulfanyl)benzyl)sulfinyl)quinolin-4(1H)-one]	–	–	1050 nM	–	1010 nM	860 nM	1210 nM	–	–	–
–	CC(=O)c1c([S+]([O-])Cc2ccc(I)cc2)[nH]c2c(Cl)ccc(Cl)c2c1=O (centres unmarked) [Compound 83, 3-acetyl-5,8-dichloro-2-((4-iodobenzyl)sulfinyl)quinolin-4(1H)-one]	–	–	1350 nM	–	1310 nM	1420 nM	1600 nM	–	–	–
–	CC(=O)c1c(S(=O)(=O)Cc2ccccc2)[nH]c2c(Br)ccc(Cl)c2c1=O [Compound 34, 3-acetyl-2-(benzylsulfonyl)-8-bromo-5-chloroquinolin-4(1H)-one]	–	–	> 2000 nM	–	> 2000 nM	> 2000 nM	> 2000 nM	–	–	–
